Reference: patent publication US20190382396A1, “SALTS OF BICYCLO[1.1.1]PENTANE INHIBITORS OF DUAL LEUCINE ZIPPER (DLK) KINASE FOR THE TREATMENT OF DISEASE” (Board of Regents, The University of Texas System, priority 2018, published 2019)

Experiments:
Format in all cases: physicochemical
[1] = Polymorph formation of hydrogen fumarate salt 11 (slurry, anti-solvent, heat-cool); parameters: key to Observation 50° C. / observation rt / observation 60° C.: “s” = slurry; “c” = clear
Protocol: Formation of polymorphs of the hydrogen fumarate salt 11 was examined. About 15 mg of hydrogen fumarate salt 11 was combined with 0.5 mL of a selected organic solvent in a vial. The mixture was stirred at 700 RPM at 50° C. for 2 days. If a solid precipitate was present, the solid precipitate was then removed by centrifugation (14,000 RPM, 5 min) and dried under vacuum at 30° C. (Method I). If a solid precipitate was not present, the solvent was removed by evaporation under vacuum at 30° C. (Method II). In either case, the resulting material was evaluated by XRPD.
Polymorph formation was examined with a slurry method using various solvents. About 500 mg of hydrogen fumarate salt 11 was combined with 50 mL of DMSO and 1 mL DMF to afford a saturated solution. Anti-solvent (no more than 5x solution volume) chosen from EtOH, iPrOH, acetone, water, and EtOAc was added. In no case was a precipitate formed.
Polymorph formation was further examined with a heat-cool method using various solvents. About 100 mg of hydrogen fumarate salt 11 was combined with 1 mL of a selected solvent. The mixture was stirred at 700 RPM for 4 hrs at 60° C., then allowed to cool to room temperature. The cycle was repeated twice. If a solid precipitate was present, the solid precipitate was then removed by centrifugation and dried under vacuum at 30° C. (Method I). If a solid precipitate was not present, the solvent was removed by evaporation (Method II). In either case, the resulting material was evaluated by XRPD.

[2] = Thermogravimetric analysis / DSC weight loss; conditions: <120° C.
Protocol: Differential scanning calorimetry (“DSC”) was performed with a TA Q2000 instrument, using approx 1 mg of sample in a crimped Al pan, heating from room temperature to 300° C. at a rate of 10° C./min.
Thermogravimetric analysis (“TGA”) was performed with a TA Q5000 instrument, using approx 2-5 mg of sample in an open Pt pan, heating from room temperature to 300° C. at a rate of 10° C./min.

[3] = Solubility of hydrogen fumarate salt 11 (1000 mg scale-up batch)
[4] = Particle size distribution of hydrogen fumarate salt 11; conditions: for D-value: in µm (unit assumed)
Protocol: VMD=[…]; STD=[…]; Duration=0.04; Copt=2.90.

[5] = Dynamic vapor sorption (DVS), hygroscopicity
Protocol: Dynamic vapor sorption (“DVS”) was performed at 25° C., using approx 10-15 mg of sample and N2 gas at a flow rate of 200 mL/min, dm/dt=0.01% min, minimum dm/dt stability duration of 10 min, max equilibration time of 180 min, drying at 0% RH for 120 min, scanning from 0% RH to 90% RH to 0% RH with a step size of 10% RH.
Total cycling time varied, but in all cases was about 200-250 min.

CC(C)c1nc(-c2cnc(N)c(OC(F)(F)F)c2)cn1C12CC(N3CCOCC3)(C1)C2.O=C(O)/C=C/C(=O)O [Example 11, 5-(2-isopropyl-1-(3-morpholinobicyclo[1.1.1]pentan-1-yl)-1H-imidazol-4-yl)-3-(trifluoromethoxy)pyridin-2-amine hydrogen fumarate]
observation 60° C. ([1]; heat-cool method, Acetone): s
observation rt ([1]; heat-cool method, Acetone): s
observation 60° C. ([1]; heat-cool method, EtOAc): s
observation rt ([1]; heat-cool method, EtOAc): s
observation 60° C. ([1]; heat-cool method, EtOH): s
observation rt ([1]; heat-cool method, EtOH): s
XRPD results ([1]; heat-cool method, THF): amorphous
observation 60° C. ([1]; heat-cool method, THF): c
observation rt ([1]; heat-cool method, THF): c
observation 60° C. ([1]; heat-cool method, iPrOH): s
observation rt ([1]; heat-cool method, iPrOH): s
Observation 50° C. ([1]; slurry 50° C., 2 days, 1/1 (v/v) EtOH/H2O): c
Observation 50° C. ([1]; slurry 50° C., 2 days, 1/1 (v/v) acetone/H2O): c
Observation 50° C. ([1]; slurry 50° C., 2 days, Acetone): c
Observation 50° C. ([1]; slurry 50° C., 2 days, CH2Cl2): s
Observation 50° C. ([1]; slurry 50° C., 2 days, CH3CN): s
Observation 50° C. ([1]; slurry 50° C., 2 days, Dioxane): c
Observation 50° C. ([1]; slurry 50° C., 2 days, EtOAc): s
Observation 50° C. ([1]; slurry 50° C., 2 days, EtOH): c
Observation 50° C. ([1]; slurry 50° C., 2 days, H2O): s
Observation 50° C. ([1]; slurry 50° C., 2 days, Heptane): s
Observation 50° C. ([1]; slurry 50° C., 2 days, MeOH): c
XRPD pattern ([1]; slurry 50° C., 2 days, MeOH): almost
Observation 50° C. ([1]; slurry 50° C., 2 days, Toluene): s
Observation 50° C. ([1]; slurry 50° C., 2 days, iPrOH): c
weight loss (TGA, %) [2]: 0.11% (<120° C.)
solubility ([3]; aqueous with cosolvent or surfactant or cyclodextrin, 1/1 (v/v) Acetone/H2O, 50° C.): 50 to 100 mg/mL
solubility ([3]; aqueous with cosolvent or surfactant or cyclodextrin, 1/1 (v/v) Acetone/H2O, RT): < 33 mg/mL
solubility ([3]; aqueous with cosolvent or surfactant or cyclodextrin, 1/1 (v/v) EtOH/H2O, 50° C.): 50 to 100 mg/mL
solubility ([3]; aqueous with cosolvent or surfactant or cyclodextrin, 1/1 (v/v) EtOH/H2O, RT): 20 to 33 mg/mL
solubility ([3]; ethanol, organic solvent or mixture, EtOH, 50° C.): 20 to 33 mg/mL
solubility ([3]; ethanol, organic solvent or mixture, EtOH, RT): < 20 mg/mL
solubility ([3]; organic solvent or mixture, ACN, 50° C.): < 10 mg/mL
solubility ([3]; organic solvent or mixture, ACN, RT): < 10 mg/mL
solubility ([3]; organic solvent or mixture, Acetone, 50° C.): 10 to 20 mg/mL
solubility ([3]; organic solvent or mixture, Acetone, RT): < 10 mg/mL
solubility ([3]; organic solvent or mixture, DCM, 50° C.): < 10 mg/mL
solubility ([3]; organic solvent or mixture, DCM, RT): < 10 mg/mL
solubility ([3]; organic solvent or mixture, DMF, RT): > 100 mg/mL
solubility ([3]; organic solvent or mixture, DMSO, 50° C.): > 100 mg/mL
solubility ([3]; organic solvent or mixture, DMSO, RT): < 100 mg/mL
solubility ([3]; organic solvent or mixture, Dioxane, 50° C.): 20 to 33 mg/mL
solubility ([3]; organic solvent or mixture, Dioxane, RT): < 20 mg/mL
solubility ([3]; organic solvent or mixture, EtOAc, 50° C.): < 10 mg/mL
solubility ([3]; organic solvent or mixture, EtOAc, RT): < 10 mg/mL
solubility ([3]; organic solvent or mixture, Heptane, 50° C.): < 10 mg/mL
solubility ([3]; organic solvent or mixture, Heptane, RT): < 10 mg/mL
solubility ([3]; organic solvent or mixture, IPA, 50° C.): 20 to 33 mg/mL
solubility ([3]; organic solvent or mixture, IPA, RT): 10 to 20 mg/mL
solubility ([3]; organic solvent or mixture, MEK, 50° C.): 10 to 20 mg/mL
solubility ([3]; organic solvent or mixture, MEK, RT): < 10 mg/mL
solubility ([3]; organic solvent or mixture, MTBE, 50° C.): < 10 mg/mL
solubility ([3]; organic solvent or mixture, MTBE, RT): < 10 mg/mL
solubility ([3]; organic solvent or mixture, MeOH, 50° C.): 50 to 100 mg/mL
solubility ([3]; organic solvent or mixture, MeOH, RT): 25 to 50 mg/mL
solubility ([3]; organic solvent or mixture, THF, 50° C.): 33 to 50 mg/mL
solubility ([3]; organic solvent or mixture, THF, RT): < 10 mg/mL
solubility ([3]; organic solvent or mixture, Toluene, 50° C.): < 10 mg/mL
solubility ([3]; organic solvent or mixture, Toluene, RT): < 10 mg/mL
solubility ([3]; water, H2O, 50° C.): 10 to 20 mg/mL
solubility ([3]; water, H2O, RT): < 10 mg/mL
PSD D90 ([4]; 8500 mg scale-up batch): D90 = 43 uM
D-value ([4]; % level 5): 1.20
D-value ([4]; % level 10): 2.21
D-value ([4]; % level 15): 3.64
D-value ([4]; % level 20): 5.39
D-value ([4]; % level 25): 7.16
D-value ([4]; % level 30): 8.89
D-value ([4]; % level 35): 10.58
D-value ([4]; % level 40): 12.28
D-value ([4]; % level 45): 14.04
D-value ([4]; % level 50): 15.88
D-value ([4]; % level 55): 17.79
D-value ([4]; % level 60): 19.93
D-value ([4]; % level 65): 22.30
D-value ([4]; % level 70): 24.85
D-value ([4]; % level 75): 28.06
D-value ([4]; % level 80): 31.79
D-value ([4]; % level 85): 36.34
D-value ([4]; % level 90): 42.91
D-value ([4]; % level 95): 54.73
Maximum sorption ([5]; DVS, 25° C.): 0.47%
Hygroscopicity (0-40% RH) ([5]; DVS, 25° C., 0-40% RH): 0.1%
Hygroscopicity (0-90% RH) ([5]; DVS, 25° C., 0-90% RH): 0.47%
Change in mass (%) Desorption ([5]; DVS, Target % P/P0 0.0): −0.0114%
Change in mass (%) Sorption ([5]; DVS, Target % P/P0 0.0): 0.0000%
Change in mass (%) Desorption ([5]; DVS, Target % P/P0 10.0): 0.0209%
Change in mass (%) Hysteresis ([5]; DVS, Target % P/P0 10.0): 0.0010%
Change in mass (%) Sorption ([5]; DVS, Target % P/P0 10.0): 0.0200%
Change in mass (%) Desorption ([5]; DVS, Target % P/P0 20.0): 0.0448%
Change in mass (%) Hysteresis ([5]; DVS, Target % P/P0 20.0): 0.0067%
Change in mass (%) Sorption ([5]; DVS, Target % P/P0 20.0): 0.0381%
Change in mass (%) Desorption ([5]; DVS, Target % P/P0 30.0): 0.0866%
Change in mass (%) Hysteresis ([5]; DVS, Target % P/P0 30.0): 0.0286%
Change in mass (%) Sorption ([5]; DVS, Target % P/P0 30.0): 0.0581%
Change in mass (%) Desorption ([5]; DVS, Target % P/P0 40.0): 0.1238%
Change in mass (%) Hysteresis ([5]; DVS, Target % P/P0 40.0): 0.0267%
Change in mass (%) Sorption ([5]; DVS, Target % P/P0 40.0): 0.0971%
Change in mass (%) Desorption ([5]; DVS, Target % P/P0 50.0): 0.1695%
Change in mass (%) Hysteresis ([5]; DVS, Target % P/P0 50.0): 0.0352%
Change in mass (%) Sorption ([5]; DVS, Target % P/P0 50.0): 0.1343%
Change in mass (%) Desorption ([5]; DVS, Target % P/P0 60.0): 0.2285%
Change in mass (%) Hysteresis ([5]; DVS, Target % P/P0 60.0): 0.0457%
Change in mass (%) Sorption ([5]; DVS, Target % P/P0 60.0): 0.1828%
Change in mass (%) Desorption ([5]; DVS, Target % P/P0 70.0): 0.2885%
Change in mass (%) Hysteresis ([5]; DVS, Target % P/P0 70.0): 0.0438%
Change in mass (%) Sorption ([5]; DVS, Target % P/P0 70.0): 0.2447%
Change in mass (%) Hysteresis ([5]; DVS, Target % P/P0 80.0): 0.0390%
Change in mass (%) Sorption ([5]; DVS, Target % P/P0 80.0): 0.3295%
Change in mass (%) Desorption ([5]; DVS, Target % P/P0 90.0): 0.4742%
Change in mass (%) Sorption ([5]; DVS, Target % P/P0 90.0): 0.4742%
Hygroscopicity; form change ([5]; form change after DVS): no change
